Experimental data published in article PMC12321279, “Novel 4,5‐Dihydrothiazole‐Phenylpiperazine Derivatives: Synthesis, Docking Studies and Pharmacological Evaluation as Serotonergic Agents” (Chemmedchem, 2025).

Legend:
Assay type in all cases: in vivo
mice [1] = experiment: Elevated plus maze test (EPM)
Description: The tests were performed on male white mice of the Albino Swiss strain, whose weight was between 24 and 30 g in Experimental Medicine Center, Medical University of Lublin, Poland. The animals were housed (four/five per cage). Before conducting the experimental tests, the animals were subjected to an adaptation that lasted seven days. This consisted of keeping them in a room with relatively constant conditions: a temperature of 22 ± 1 °C, a humidity of 55 ± 5% and lighting that mimicked the natural day and night rhythm (12 h/12 h). Constant access to food and water was provided. Standard feed—LSM Motycz pelleted feed—and tap water were used. Mice were randomly allocated to study groups. Each group was represented by 8–10 animals, depending on the research schedule. The experiments were performed according to the procedures set out in the regulations for animal experiments: National Institute of Health Guidelines for the Care and Use of Laboratory Animals (8th edition) and to the European Community Council Directive for the Care and Use of Laboratory Animals of 22 September 2010 (2010/63/EU). The study was approved by the Local Ethical Committee in Lublin (number of ethical approvals: 27/2023). Tested compounds: FG‐1, FG‐4, FG‐5, FG‐6, FG‐7, FG‐8, and FG‐18 were finely ground in mortars with the addition of the emulsifier Tween‐80. A suspension was obtained, which was then diluted with aqueous solution of 0.5% methylcellulose (tylose). The mixture was then administered intraperitoneally (i.p.) to the animals 60 min before the start of the experiments. Animals in the control groups received a 0.5% tylose solution. All substances were administered via the same route of administration in appropriate dose and volume of 0.1 mL per 10 g of animal body weight. Prior to the administration of the drug, the animals were weighed, during the interval between tests, they were provided with food, water, and constant living conditions. The EPM test is performed using an apparatus developed by Lister;^[ [44] ^] it consists of two open arms (30 × 5 cm) and two enclosed arms (30 × 5 × 15 cm) and a central platform (5 × 5 cm) it is placed at a height of 45 cm from the floor. The labyrinth was made of Plexiglas. The experiments were conducted in a darkened and quiet room. The central square of the maze was evenly illuminated with a dull red light. In the test, the mouse is observed for 5 min, and the number of entries into the open and closed arms and the time spent in them are recorded. The person carrying out the experiment remains constantly in the same place. Entering an individual arm is considered when the mouse has placed all four limbs outside the central square. The experiment measures: 1) the time spent by the mouse into the open arms of the maze, expressed as a percentage of the total exploration time, 2) the number of entries into the open arms of the maze, expressed as a percentage of the total number of entrances to both types of arms, and 3) the total number of entries into all arms of the maze—as a locomotor activity of the animals. If the mouse spends more time in the open arms than in the closed arms, this indicates an anxiolytic effect of the compounds tested. Exposed arms pose a risk of falling and therefore act as a mild stressor. Anxious mice are more likely to switch between open and enclosed arms and spend more time in enclosed arms than less anxious mice.^[ [11], [17], [44], [45] ^]

mice [2] = experiment: MK‐801‐induced hyperactivity test; conditions: 30 mg/kg i.p. 60 min before test, MK‐801 0.3 mg kg^−1 s.c., 20 min observation
Description: The tests were performed on male white mice of the Albino Swiss strain, whose weight was between 24 and 30 g in Experimental Medicine Center, Medical University of Lublin, Poland. The animals were housed (four/five per cage). Before conducting the experimental tests, the animals were subjected to an adaptation that lasted seven days. This consisted of keeping them in a room with relatively constant conditions: a temperature of 22 ± 1 °C, a humidity of 55 ± 5% and lighting that mimicked the natural day and night rhythm (12 h/12 h). Constant access to food and water was provided. Standard feed—LSM Motycz pelleted feed—and tap water were used. Mice were randomly allocated to study groups. Each group was represented by 8–10 animals, depending on the research schedule. The experiments were performed according to the procedures set out in the regulations for animal experiments: National Institute of Health Guidelines for the Care and Use of Laboratory Animals (8th edition) and to the European Community Council Directive for the Care and Use of Laboratory Animals of 22 September 2010 (2010/63/EU). The study was approved by the Local Ethical Committee in Lublin (number of ethical approvals: 27/2023). Tested compounds: FG‐1, FG‐4, FG‐5, FG‐6, FG‐7, FG‐8, and FG‐18 were finely ground in mortars with the addition of the emulsifier Tween‐80. A suspension was obtained, which was then diluted with aqueous solution of 0.5% methylcellulose (tylose). The mixture was then administered intraperitoneally (i.p.) to the animals 60 min before the start of the experiments. Animals in the control groups received a 0.5% tylose solution. All substances were administered via the same route of administration in appropriate dose and volume of 0.1 mL per 10 g of animal body weight. Prior to the administration of the drug, the animals were weighed, during the interval between tests, they were provided with food, water, and constant living conditions. […]

mice [3] = experiment: Forced swim test (FST, Porsolt's test)
Description: The tests were performed on male white mice of the Albino Swiss strain, whose weight was between 24 and 30 g in Experimental Medicine Center, Medical University of Lublin, Poland. The animals were housed (four/five per cage). Before conducting the experimental tests, the animals were subjected to an adaptation that lasted seven days. This consisted of keeping them in a room with relatively constant conditions: a temperature of 22 ± 1 °C, a humidity of 55 ± 5% and lighting that mimicked the natural day and night rhythm (12 h/12 h). Constant access to food and water was provided. Standard feed—LSM Motycz pelleted feed—and tap water were used. Mice were randomly allocated to study groups. Each group was represented by 8–10 animals, depending on the research schedule. The experiments were performed according to the procedures set out in the regulations for animal experiments: National Institute of Health Guidelines for the Care and Use of Laboratory Animals (8th edition) and to the European Community Council Directive for the Care and Use of Laboratory Animals of 22 September 2010 (2010/63/EU). The study was approved by the Local Ethical Committee in Lublin (number of ethical approvals: 27/2023). Tested compounds: FG‐1, FG‐4, FG‐5, FG‐6, FG‐7, FG‐8, and FG‐18 were finely ground in mortars with the addition of the emulsifier Tween‐80. A suspension was obtained, which was then diluted with aqueous solution of 0.5% methylcellulose (tylose). The mixture was then administered intraperitoneally (i.p.) to the animals 60 min before the start of the experiments. Animals in the control groups received a 0.5% tylose solution. All substances were administered via the same route of administration in appropriate dose and volume of 0.1 mL per 10 g of animal body weight. Prior to the administration of the drug, the animals were weighed, during the interval between tests, they were provided with food, water, and constant living conditions.
The study was carried out using the test proposed by R. Porsolt.^[ [46] ^] The method is based on the observation of an animal forced to swim in a confined space from which there is no escape. After an initial period of vigorous attempts to get out, the animal finally gives up on escaping. The test consists of immersing the mouse individually in a cylinder (diameter 10 cm, height 25 cm) filled with water (at a temperature of 23–25 °C) to a height of 10 cm for 6 min. In this test, two parameters were measured: immobility time in seconds (s), understood as the state in which the mouse makes only those movements that are necessary to keep the head above water, and the latency to the first immobility (s). Measurements were taken during the last 4 min of the experiment, starting from the 2nd to the 6th minute. At the end of each session, the animals were removed from the cylinders, dried with a towel, and placed near a heater until completely dry. Antidepressants typically show increased latency and decreased immobility in this test.

[4] = 30 mg kg^−1 i.p. 60 min before test
[5] = 15 mg kg^−1 i.p. 60 min before test
[6] = 7.5 mg kg^−1 i.p. 60 min before test

## O=C(NCCCN1CCN(c2ccc(C3=NCCS3)cc2)CC1)C1CC2C=CC1C2 (stereo not drawn) [FG‐18, Endo‐ N‐(3‐(4‐(4‐(4,5‐dihydrothiazol‐2‐yl)phenyl)piperazin‐1‐yl)propyl) bicyclo[2.2.1]hept‐5‐ene‐2‐carboxamide]
Mice [1]; [4]
  EPM, percentage of time spent in open arms: significant increase in time spent in open arms

## O=C1C2C3C=CC(C3)C2C(=O)N1OCCCN1CCN(c2ccccc2C2=NCCS2)CC1 (centres unmarked) [FG‐7, 2‐(3‐(4‐(2‐(4,5‐dihydrothiazol‐2‐yl) phenyl) piperazin‐1‐yl) propoxy)‐3a,4,7,7a‐tetrahydro‐1 H‐4,7‐methanoisoindole‐1,3(2 H)‐dione]
Mice [1]; [5]
  EPM, percentage of time spent in open arms: significant increase in time spent in open arms
Mice [1]; [4]
  EPM, percentage of the open arm entries: increase in the percentage of open arm entries

## O=C(NCCCN1CCN(c2ccc(C3=NCCS3)cc2)CC1)c1ccncc1 [FG‐6, N‐(3‐(4‐(4‐(4,5‐dihydrothiazol‐2‐yl) phenyl) piperazin‐1‐yl) propyl) isonicotinamide]
Mice [2]
  MK‐801‐induced hyperactivity: significant decrease in MK‐801‐induced hyperactivity
Mice [1]; [6]
  EPM, percentage of the open arm entries: increase in the percentage of open arm entries
Mice [1]; [5]
  EPM, percentage of the open arm entries: increase in the percentage of open arm entries
  EPM, percentage of time spent in open arms: significant increase in time spent in open arms
Mice [3]; [6]
  FST, latency to first immobility: significant increase in latency to first immobility
  FST, total duration of immobility: significant decrease in immobility
Mice [3]; [5]
  FST, latency to first immobility: significant increase in latency to first immobility
  FST, total duration of immobility: significant decrease in immobility

## O=C(NCCCN1CCN(c2cccc(C3=NCCS3)c2)CC1)c1ccncc1 [FG‐5, N‐(3‐(4‐(3‐(4,5‐dihydrothiazol‐2‐yl) phenyl) piperazin‐1‐yl) propyl) isonicotinamide]
Mice [3]; [5]
  FST, total duration of immobility: significant decrease in immobility
Mice [3]; [4]
  FST, latency to first immobility: significant increase in latency to first immobility
  FST, total duration of immobility: significant decrease in immobility

## O=C(NCCCN1CCN(c2ccccc2C2=NCCS2)CC1)c1ccncc1 [FG‐4, N‐(3‐(4‐(2‐(4,5‐dihydrothiazol‐2‐yl) phenyl) piperazin‐1‐yl) propyl) isonicotinamide]
Mice [2]
  MK‐801‐induced hyperactivity: significant decrease in MK‐801‐induced hyperactivity

## O=C1C2C3C=CC(C3)C2C(=O)N1OCCCN1CCN(c2cccc(C3=NCCS3)c2)CC1 (centres unmarked) [FG‐8, 2‐(3‐(4‐(3‐(4,5‐dihydrothiazol‐2‐yl) phenyl) piperazin‐1‐yl) propoxy)‐3a,4,7,7a‐tetrahydro‐1H‐4,7‐methanoisoindole‐1,3(2H)‐dione]
Mice [3]; [4]
  FST, latency to first immobility: significant increase in latency to first immobility
  FST, total duration of immobility: significant decrease in immobility

## O=C(NCCCN1CCN(c2ccccc2C2=NCCS2)CC1)c1ccccn1 [FG‐1, N‐(3‐(4‐(2‐(4,5‐dihydrothiazol‐2‐yl) phenyl) piperazin‐1‐yl) propyl) picolinamide]
Mice [2]
  MK‐801‐induced hyperactivity: significant decrease in MK‐801‐induced hyperactivity
Mice [1]; [4]
  EPM, percentage of the open arm entries: increase in the percentage of open arm entries
  EPM, percentage of time spent in open arms: significant increase in time spent in open arms
Mice [3]; [5]
  FST, total duration of immobility: significant decrease in immobility
Mice [3]; [4]
  FST, latency to first immobility: significant increase in latency to first immobility
  FST, total duration of immobility: significant decrease in immobility
